Like-named read-outs stand apart in the source and are kept apart here.
How the values were obtained:
ZIKV RdRP = ZIKV RdRP (Zika virus, UniProt A0A024B7W1); test: Single nucleotide incorporation assay; assay type: biochemical; conditions: 150 µM nucleotide, 37 °C; for observed rate of incorporation, kobs: 1 µM RdRP, 200 nM P/T substrate, single exponential fit, n = 2
[1] = system: ZIKV PRVABC59/Human/2015/Puerto Rico; test: CellTiter-Glo activity assay, ZIKV PRVABC59-infected neural stem cells; assay type: cell-based, Zika virus; conditions: for EC50: human neural stem cells, MOI 10, 72 h post-infection, CellTiter-Glo, ± SE, n = 4
[2] = system: ZIKV H/PAN/2016/BEI-259634; test: CellTiter-Glo activity assay, ZIKV H/PAN-infected neural stem cells; assay type: cell-based, Zika virus; conditions: read-out: EC50 H/PAN ZIKV
[3] = CellTiter-Glo toxicity in mock-infected neural stem cells; conditions: human
human neural stem cells = test: as above; conditions: mock-infected neural stem cells, 72 h, CellTiter-Glo, ± SE, n = 4
[4] = system: ZIKV H/PAN/2016/BEI-259634; assay type: cell-based, Zika virus; conditions: GSC 387 cells, H/PAN MOI 10, 72 h post-infection
[5] = system: ZIKV H/PAN/2016/BEI-259634; test: Plaque assay of ZIKV titers from treated hNSC cultures; assay type: cell-based, Zika virus; conditions: human fetal neural stem cells, H/PAN MOI 0.1, 48 h post-infection
[6] = Zika virus, Neural stem cell, in Homo sapiens
[7] = human neural stem cells, MOI 10, 72 h post-infection, CellTiter-Glo, ± SE, n = 4

Chain of ZIKV RdRP (A0A024B7W1 2772-3423): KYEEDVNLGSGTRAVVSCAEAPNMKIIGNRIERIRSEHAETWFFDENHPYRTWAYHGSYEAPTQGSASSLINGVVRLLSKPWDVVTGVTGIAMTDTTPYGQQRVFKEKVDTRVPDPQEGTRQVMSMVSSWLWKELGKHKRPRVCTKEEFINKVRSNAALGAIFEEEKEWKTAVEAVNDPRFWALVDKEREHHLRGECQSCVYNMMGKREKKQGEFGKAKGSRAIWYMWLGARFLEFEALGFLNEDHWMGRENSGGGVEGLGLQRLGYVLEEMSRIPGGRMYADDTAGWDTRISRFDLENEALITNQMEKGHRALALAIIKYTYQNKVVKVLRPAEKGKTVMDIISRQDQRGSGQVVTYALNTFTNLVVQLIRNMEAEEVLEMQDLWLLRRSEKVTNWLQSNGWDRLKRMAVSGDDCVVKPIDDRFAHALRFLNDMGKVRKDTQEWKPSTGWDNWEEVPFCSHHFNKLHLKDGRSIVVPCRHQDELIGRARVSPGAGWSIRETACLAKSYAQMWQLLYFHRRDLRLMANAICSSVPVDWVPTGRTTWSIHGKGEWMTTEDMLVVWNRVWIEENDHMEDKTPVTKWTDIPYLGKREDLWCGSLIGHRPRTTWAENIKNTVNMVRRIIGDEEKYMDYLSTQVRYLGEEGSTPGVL

SMILES: C[C@@]1(O)[C@H](O)[C@@H](COP(=O)(O)OP(=O)(O)OP(=O)(O)O)O[C@H]1n1ccc(=O)[nH]c1=O [2′-C-methyluridine triphosphate]
- observed rate of incorporation, kobs (ZIKV RdRP): 0.016 ± 0.001 % incorporation min^−1
- maximal incorporation (plateau) (ZIKV RdRP): 35%
- time to half maximal incorporation (ZIKV RdRP): ~ 45 min

SMILES: CSCCOP(=O)(NCCc1c[nH]c2ccccc12)OCC1OC(n2ccc(=O)[nH]c2=O)C(C)(O)C1O (centres unmarked) [(5-(2,4-dioxo-3,4-dihydropyrimidin-1(2H)-yl)-3,4-dihydroxy-4-methyltetrahydrofuran-2-yl)methyl (2-(methylthio)ethyl) (2-(1H-indol-3-yl)ethyl)phosphoramidate]
- EC50 [1, 6]: > 50 µM
- anti-ZIKV activity (in words) ([1]; neural stem cells, PRVABC59 and H/PAN strains, highest concentration 50 µM): completely abolished activity
- EC50 ([2]; Zika virus, Neural stem cell, human neural stem cells, MOI 10, 72 h post-infection, CellTiter-Glo, ± SE, n = 4): > 50 µM
- CC50 at 72 h ([3]; mock-infected neural stem cells (NSCs)): > 50 µM

SMILES: CC(C)OC(=O)C(C)NP(=O)(OCC1OC(n2cnc3c(N)ncnc32)C(C)(O)C1O)Oc1ccccc1 (centres unmarked) [2′-C-Methyladenosine aryloxyl phosphoramidate]
- EC50 [1]: 10 ± 1 µM
- EC50 [2, 7]: 18 ± 1 µM
- CC50 (human neural stem cells): 42 ± 1 µM

SMILES: COC1C(COP(=O)(NC(C)C(=O)OC(C)C)Oc2ccccc2)OC(n2ccc(=O)[nH]c2=O)C1O (centres unmarked) [3′-O-Methyluridine aryloxyl phosphoramidate]
- EC50 [1]: > 50 µM
- EC50 [2, 7]: > 50 µM
- CC50 (human neural stem cells): > 50 µM

SMILES: CC(C)OC(=O)C(C)NP(=O)(OCC1CC(O)C(n2ccc(N)nc2=O)O1)Oc1ccccc1 (centres unmarked) [3′-Deoxycytidine aryloxyl phosphoramidate]
- EC50 [1]: > 50 µM
- EC50 [2, 7]: > 50 µM
- CC50 (human neural stem cells): > 50 µM

SMILES: C[C@@]1(F)[C@H](O)[C@@H](COP(=O)(O)OP(=O)(O)OP(=O)(O)O)O[C@H]1n1ccc(=O)[nH]c1=O [2′-fluoro-2′-C-methyluridine triphosphate]
- observed rate of incorporation, kobs (ZIKV RdRP): 0.0085 ± 0.001 % incorporation min^−1
- maximal incorporation (plateau) (ZIKV RdRP): 15%
- time to half maximal incorporation (ZIKV RdRP): ~90 min

SMILES: CC(C)OC(=O)C(C)NP(=O)(OCC1OC(n2ccc(N)nc2=O)C(C)(O)C1O)Oc1ccccc1 (centres unmarked) [2′-C-Methylcytidine aryloxyl phosphoramidate]
- EC50 [1]: 48 ± 1 µM
- EC50 [2, 7]: > 50 µM

SMILES: O=c1ccn([C@@H]2O[C@H](COP(=O)(O)OP(=O)(O)OP(=O)(O)O)[C@@H](O)[C@H]2O)c(=O)[nH]1 [UTP]
- observed rate of incorporation, kobs (ZIKV RdRP): 0.151 ± 0.004 % incorporation min^−1
- time to full incorporation (ZIKV RdRP): ~ 30 min
- time to half maximal incorporation (ZIKV RdRP): ≤ 5 min

SMILES: C#CC1(O)C(O)C(COP(=O)(NC(C)C(=O)OC(C)C)Oc2ccccc2)OC1n1ccc(=O)[nH]c1=O (centres unmarked) [2′-C-Ethynyluridine Aryloxy Phosphoramidate]
- EC50 [2, 7]: 0.8 ± 1 µM
- CC50 (human neural stem cells): > 50 µM

SMILES: CC(C)OC(=O)C(C)NP(=O)(OCC1OC(n2ccc(=O)[nH]c2=O)C(C)(O)C1O)Oc1ccccc1 (centres unmarked) [2′-C-methyluridine aryloxyl phosphoramidate]
- EC50 [1]: 1 ± 1 µM
- EC50 [2, 7]: 2 ± 1 µM
- protection from ZIKV-induced cytopathic effect ([4]; 10 µM compound): better able to protect against ZIKV-induced cytopathic effect
- protection from ZIKV-induced cytopathic effect ([4]; 30 µM compound): able to protect against the cytopathic effect
- ZIKV titers by plaque assay ([5]; 10 µM compound): undetectable levels
- ZIKV titers by plaque assay ([5]; 30 µM compound): undetectable levels
- CC50 (human neural stem cells): 47 ± 1 µM

SMILES: CC(C)OC(=O)C(C)NP(=O)(OCC1CC(O)C(n2cnc3c(N)ncnc32)O1)Oc1ccccc1 (centres unmarked) [3′-Deoxyadenosine aryloxyl phosphoramidate]
- EC50 [1]: > 50 µM
- EC50 [2, 7]: > 50 µM
- CC50 (human neural stem cells): > 50 µM

SMILES: COC1C(O)C(COP(=O)(NC(C)C(=O)OC(C)C)Oc2ccccc2)OC1n1ccc(N)nc1=O (centres unmarked) [2′-O-Methylcytidine aryloxyl phosphoramidate]
- EC50 [1]: > 50 µM
- EC50 [2, 7]: > 50 µM
- CC50 (human neural stem cells): > 50 µM

SMILES: CC(C)OC(=O)[C@H](C)N[P@](=O)(OC[C@H]1O[C@@H](n2ccc(=O)[nH]c2=O)[C@](C)(F)[C@@H]1O)Oc1ccccc1 [Sofosbuvir, reference compound]
- EC50 [1, 6]: 35 ± 1 µM
- EC50 ([2]; Zika virus, Neural stem cell, 72 h): 46 ± 1 µM
- protection from ZIKV-induced cytopathic effect ([4]; 30 µM compound): able to protect against the cytopathic effect
- ZIKV titers by plaque assay ([5]; 30 µM compound): undetectable levels
- CC50 at 72 h [3]: > 50 µM

— article PMC6521205 (Viruses, 2019)
